# Patent US8574563B2 (Bristol-Myers Squibb Company, priority 2006, dated 2013)
# Tested on: HCV 1b-377-neo replicon cells
# Assay: HCV replicon assay, HCV 1b-377-neo replicon cells (1b FRET)
# Assay type: cell-based, Hepatitis C virus genotype 1b
# Settings: Hepatitis C virus, HCV 1b-377-neo replicon cells; HCV 1b genotype; read-out: EC50 range against HCV 1b (Table 2, Range)
# Outline: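 Compounds were tested in genotype 1b subgenomic replicon cells carrying a neomycin marker, alongside a matched replicon line with an NS5A Y2065H substitution that confers resistance to a reference NS5A inhibitor.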
row,SMILES,EC50 [nM]
1,"C[C@H](NC(=O)[C@@H](c1ccccc1)N(C)C)c1ncc(-c2ccc(-c3ccc(-c4cnc([C@H](C)NC(=O)[C@@H](c5ccccc5)N(C)C)[nH]4)cn3)cc2)[nH]1 [Example 152j-24, (2R)-2-(dimethylamino)-N-((1S)-1-(5-(6-(4-(2-((1S)-1-(((2R)-2-(dimethylamino)-2-phenylacetyl)amino)ethyl)-1H-imidazol-5-yl)phenyl)-3-pyridinyl)-1H-imidazol-2-yl)ethyl)-2-phenylacetamide]",0.001 to 0.999
2,"COC(=O)N[C@@H](C(=O)N[C@@H](C)c1ncc(-c2ccc(-c3cnc(-c4cnc([C@@H]5CCCN5C(=O)[C@H](NC(=O)OC)c5ccccc5)[nH]4)cn3)cc2)[nH]1)c1ccccc1 [Example 152j-28, methyl ((1R)-2-((2S)-2-(5-(5-(4-(2-((1S)-1-(((2R)-2-((methoxycarbonyl)amino)-2-phenylacetyl)amino)ethyl)-1H-imidazol-5-yl)phenyl)-2-pyrazinyl)-1H-imidazol-2-yl)-1-pyrrolidinyl)-2-oxo-1-phenylethyl)carbamate]",0.001 to 0.999
3,"COC(=O)N[C@@H](C(=O)N(C)[C@@H](C)c1ncc(-c2ccc(-c3ncc(-c4cnc([C@@H]5CCCN5C(=O)[C@@H](c5ccccc5)N5CCCCC5)[nH]4)cn3)cc2)[nH]1)c1ccccc1 [Example 152l-1, methyl ((1R)-2-(methyl((1S)-1-(4-(4-(5-(2-((2S)-1-((2R)-2-phenyl-2-(1-piperidinyl)acetyl)-2-pyrrolidinyl)-1H-imidazol-5-yl)-2-pyrimidinyl)phenyl)-1H-imidazol-2-yl)ethyl)amino)-2-oxo-1-phenylethyl)carbamate]",0.001 to 0.999
4,"COC(=O)N[C@@H](C(=O)N[C@@H](C)c1ncc(-c2ccc(-c3ncc(-c4cnc([C@@H]5CCCN5C(=O)[C@@H](c5ccccc5)N5CCCCC5)[nH]4)cn3)cc2)[nH]1)c1ccccc1 [Example 152l-2, methyl ((1R)-2-oxo-1-phenyl-2-(((1S)-1-(4-(4-(5-(2-((2S)-1-((2R)-2-phenyl-2-(1-piperidinyl)acetyl)-2-pyrrolidinyl)-1H-imidazol-5-yl)-2-pyrimidinyl)phenyl)-1H-imidazol-2-yl)ethyl)amino)ethyl)carbamate]",0.001 to 0.999
5,COC(=O)N[C@@H](C(=O)N1CCC[C@H]1c1ncc(-c2ccc(-c3ncc(-c4cnc([C@@H]5CCCN5C(=O)[C@@H](c5ccccc5)N5CCCCC5)[nH]4)cn3)cc2)[nH]1)c1ccccc1 [Example 152l-3],0.001 to 0.999
6,"CN(C)[C@@H](C(=O)N1CCC[C@H]1c1ncc(-c2ccc(-c3ccc(-c4cnc([C@@H]5CCCN5C(=O)[C@@H](c5ccccc5)N(C)C)[nH]4)nn3)nn2)[nH]1)c1ccccc1 [Example 153c-1, (1R,1′R)-2,2′-(3,3′-bipyridazine-6,6′-diylbis(1H-imidazole-5,2-diyl(2S)-2,1-pyrrolidinediyl))bis(N,N-dimethyl-2-oxo-1-phenylethanamine)]",1 to 99
7,"COC(=O)N[C@@H](C(=O)N1CCC[C@H]1c1ncc(-c2ccc(-c3ccc(-c4cnc([C@@H]5CCCN5C(=O)[C@H](NC(=O)OC)c5ccccc5)[nH]4)nn3)nn2)[nH]1)c1ccccc1 [Example 153c-2, dimethyl (3,3′-bipyridazine-6,6′-diylbis(1H-imidazole-5,2-diyl(2S)-2,1-pyrrolidinediyl((1R)-2-oxo-1-phenyl-2,1-ethanediyl)))biscarbamate]",1 to 99
8,"CN(C)[C@@H](C(=O)N1CCC[C@H]1c1ncc(-c2cnc(-c3ncc(-c4cnc([C@@H]5CCCN5C(=O)[C@@H](c5ccccc5)N(C)C)[nH]4)cn3)nc2)[nH]1)c1ccccc1 [Example 153c-3, (1R,1′R)-2,2′-(2,2′-bipyrimidine-5,5′-diylbis(1H-imidazole-5,2-diyl(2S)-2,1-pyrrolidinediyl))bis(N,N-dimethyl-2-oxo-1-phenylethanamine)]",1000 to 10000
9,"COC(=O)N[C@@H](C(=O)N1CCC[C@H]1c1ncc(-c2cnc(-c3ncc(-c4cnc([C@@H]5CCCN5C(=O)[C@H](NC(=O)OC)c5ccccc5)[nH]4)cn3)nc2)[nH]1)c1ccccc1 [Example 153c-4, dimethyl (2,2′-bipyrimidine-5,5′-diylbis(1H-imidazole-5,2-diyl(2S)-2,1-pyrrolidinediyl((1R)-2-oxo-1-phenyl-2,1-ethanediyl)))biscarbamate]",1000 to 10000
10,"CN(C)[C@@H](C(=O)N1CCC[C@H]1c1ncc(-c2cnc(-c3cnc(-c4cnc([C@@H]5CCCN5C(=O)[C@@H](c5ccccc5)N(C)C)[nH]4)cn3)cn2)[nH]1)c1ccccc1 [Example 153c-5, (1R,1′R)-2,2′-(2,2′-bipyrazine-5,5′-diylbis(1H-imidazole-5,2-diyl(2S)-2,1-pyrrolidinediyl))bis(N,N-dimethyl-2-oxo-1-phenylethanamine)]",1 to 99
11,"COC(=O)N[C@@H](C(=O)N1CCC[C@H]1c1ncc(-c2cnc(-c3cnc(-c4cnc([C@@H]5CCCN5C(=O)[C@H](NC(=O)OC)c5ccccc5)[nH]4)cn3)cn2)[nH]1)c1ccccc1 [Example 153c-6, dimethyl (2,2′-bipyrazine-5,5′-diylbis(1H-imidazole-5,2-diyl(2S)-2,1-pyrrolidinediyl((1R)-2-oxo-1-phenyl-2,1-ethanediyl)))biscarbamate]",1 to 99
12,"COC(=O)N[C@@H](C(=O)N[C@@H](C)c1ncc(-c2ccc(-c3ccc(-c4cnc([C@H](C)NC(=O)[C@H](NC(=O)OC)c5ccccc5)[nH]4)cn3)nc2)[nH]1)c1ccccc1 [Example 153c-7, dimethyl (2,2′-bipyridine-5,5′-diylbis(1H-imidazole-5,2-diyl(1S)-1,1-ethanediylimino((1R)-2-oxo-1-phenyl-2,1-ethanediyl)))biscarbamate]",1 to 99
13,"COc1ccc(-c2ccc(-c3cnc([C@@H]4CCCN4C(=O)[C@@H](c4ccccc4)N(C)C)[nH]3)cc2)cc1-c1c[nH]c([C@@H]2CCCN2C(=O)[C@@H](c2ccccc2)N(C)C)n1 [Example D33, (1R,1′R)-2,2′-((4-methoxy-3,4′-biphenyldiyl)bis(1H-imidazole-5,2-diyl(2S)-2,1-pyrrolidinediyl))bis (N,N-dimethyl-2-oxo-1-phenylethanamine)]",0.001 to 0.999
14,"COC(=O)N[C@@H](C(=O)N1CCC[C@H]1c1nc(-c2cc(-c3ccc(-c4cnc([C@@H]5CCCN5C(=O)[C@H](NC(=O)OC)c5ccccc5)[nH]4)cc3)ccc2OC)c[nH]1)c1ccccc1 [Example D34, dimethyl ((4-methoxy-3,4′-biphenyldiyl)bis(1H-imidazole-5,2-diyl(2S)-2,1-pyrrolidinediyl((1R)-2-oxo-1-phenyl-2,1-ethanediyl))) biscarbamate]",0.001 to 0.999
15,"CCN(CC)[C@@H](C(=O)N1CCC[C@H]1c1ncc(-c2ccc(-c3ccc(-c4cnc([C@@H]5CCCN5C(=O)[C@@H](NC(=O)OC)C(C)C)[nH]4)c(F)c3)cc2)[nH]1)c1ccccc1 [Example D35, methyl ((1S)-1-(((2S)-2-(5-(4′-(2-((2S)-1-((2R)-2-(diethylamino)-2 - phenylacetyl)-2-pyrrolidinyl)-1H-imidazol-5-yl)-3-fluoro-4-biphenylyl)-1H-imidazol-2-yl)-1-pyrrolidinyl)carbonyl)-2-methylpropyl) carbamate]",0.001 to 0.999
16,"CCN(CC)[C@@H](C(=O)N1CCC[C@H]1c1ncc(-c2ccc(-c3ccc(-c4cnc([C@@H]5CCCN5C(=O)[C@H](C)NC(=O)OC)[nH]4)c(F)c3)cc2)[nH]1)c1ccccc1 [Example D36, methyl ((1S)-2-((2S)-2-(5-(4′-(2-((2S)-1-((2R)-2-(diethylamino)-2-phenylacetyl)-2-pyrrolidinyl)-1H-imidazol-5-yl)-3-fluoro-4-biphenylyl)-1H-imidazol-2-yl)-1-pyrrolidinyl)-1-methyl-2-oxoethyl)carbamate]",0.001 to 0.999
17,"CCN(CC)[C@@H](C(=O)N1CCC[C@H]1c1ncc(-c2ccc(-c3ccc(-c4cnc([C@@H]5CCCN5C(=O)[C@H](NC(=O)OC)c5ccccc5)[nH]4)c(F)c3)cc2)[nH]1)c1ccccc1 [Example D37, methyl ((1R)-2-((2S)-2-(5-(4′-(2-((2S)-1-((2R)-2-(diethylamino)-2-phenylacelyl)-2-pyrrolidinyl)-1H-imidazol-5-yl)-3-fluoro-4-biphenylyl)-1H-imidazol-2-yl)-1-pyrrolidinyl)-2-oxo-1-phenylethyl)carbamate]",0.001 to 0.999
18,"COC(=O)N[C@@H](C)C(=O)N1CCC[C@H]1c1ncc(-c2ccc(-c3ccc(-c4cnc([C@@H]5CCCN5C(=O)[C@H](NC(=O)OC)c5ccccc5)[nH]4)cc3)cc2F)[nH]1 [Example D38, methyl ((1R)-2-((2S)-2-(5-(3′-fluoro-4′-(2-((2S)-1-(N-(methoxycarbonyl)-L-alanyl)-2-pyrrolidinyl)-1H-imidazol-5-yl)-4-biphenylyl)-1H-imidazol-2-yl)-1-pyrrolidinyl)-2-oxo-1-phenylethyl)carbamate]",0.001 to 0.999
19,"CCN(CC)[C@@H](C(=O)N1CCC[C@H]1c1ncc(-c2ccc(-c3ccc(-c4cnc([C@@H]5CCCN5C(=O)[C@H](NC(=O)OC)c5ccccc5)[nH]4)cc3)cc2F)[nH]1)c1ccccc1 [Example D39, methyl ((1R)-2-((2S)-2-(5-(4′-(2-((2S)-1-((2R)-2-(diethylamino)-2-phenylacetyl)-2-pyrrolidinyl)-1H-imidazol-5-yl)-3′-fluoro-4-biphenylyl)-1H-imidazol-2-yl)-1-pyrrolidinyl)-2-oxo-1-phenylethyl)carbamate]",0.001 to 0.999
20,"COC(=O)N[C@H](C(=O)N1CCC[C@H]1c1ncc(-c2ccc(-c3ccc(-c4cnc([C@@H]5CCCN5C(=O)[C@@H](NC(=O)OC)C(C)C)[nH]4)c(F)c3)cc2)[nH]1)C(C)C [Example D40, methyl ((1S)-1-(((2S)-2-(5-(3′-fluoro-4′-(2-((2S)-1-((2S)-2-((methoxycarbonyl)amino)-3-methylbutanoyl)-2-pyrrolidinyl)-1H-imidazol-5-yl)-4-biphenylyl)-1H-imidazol-2-yl)-1-pyrrolidinyl)carbony)-2-methylpropyl) carbamate]",0.001 to 0.999
